According to PubChem BioAssay AID256 (DTP/NCI, 2004):
Values joined by “and” are separate entries in the source; they are usually repeats but may differ in a detail not shown here. Identical values can stand only once. Toxic doses and inconclusive results are not listed.

Tested on: CD2F1 mice, L1210 leukemia ip, survival T/C
Assay: NCI In Vivo Anticancer Drug Screen. Data for tumor model L1210 Leukemia (intraperitoneal) in CD2F1 (CDF1) mice
Details: higher = longer survival
Procedure, shortened: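 Read-out first: treated-group measurement over vehicle-control measurement, expressed as a ratio. Animals bore a transplanted tumor line and were dosed with compound or vehicle.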

[1] = endpoint: mean survival time, dose: 25.0 mg/kg/injection, schedule: Q04DX003 (ip), vehicle: saline with Tween-80
[2] = endpoint: mean survival time, dose: 50.0 mg/kg/injection, schedule: Q04DX003 (ip), vehicle: saline with Tween-80
[3] = endpoint: mean survival time, dose: 100.0 mg/kg/injection, schedule: Q04DX003 (ip), vehicle: saline with Tween-80
[4] = endpoint: mean survival time, dose: 400.0 mg/kg/injection, schedule: Q04DX003 (ip), vehicle: saline with Tween-80
[5] = endpoint: mean survival time, dose: 100.0 mg/kg/injection, schedule: Q04DX003 (ip), vehicle: saline
[6] = endpoint: mean survival time, dose: 200.0 mg/kg/injection, schedule: Q04DX003 (ip), vehicle: saline
[7] = endpoint: mean survival time, dose: 200.0 mg/kg/injection, schedule: Q04DX002 (ip), vehicle: saline with Tween-80
[8] = endpoint: mean survival time, dose: 6.25 mg/kg/injection, schedule: Q04DX003 (ip), vehicle: saline with Tween-80
[9] = endpoint: mean survival time, dose: 12.5 mg/kg/injection, schedule: Q04DX003 (ip), vehicle: saline with Tween-80
[10] = endpoint: mean survival time, dose: 100.0 mg/kg/injection, schedule: Q01DX009 (ip), vehicle: saline with Tween-80
[11] = endpoint: mean survival time, dose: 200.0 mg/kg/injection, schedule: Q01DX009 (ip), vehicle: saline with Tween-80

## COC(=O)c1cccc(O)c1O
endpoint: mean survival time, dose: 100.0 mg/kg/injection, schedule: Q04DX002 (ip), vehicle: other
  T/C: 98 % of control
endpoint: mean survival time, dose: 200.0 mg/kg/injection, schedule: Q04DX002 (ip), vehicle: other
  T/C: 92 % of control
endpoint: mean survival time, dose: 400.0 mg/kg/injection, schedule: Q04DX002 (ip), vehicle: other
  T/C: 95 % of control

## O=C1C(Cl)=C(SCc2ccccc2)C(=O)c2ccccc21
[1]
  T/C: 91 % of control
[2]
  T/C: 91 % of control

## O=C1CCC2(CCCCC2)N1
endpoint: mean survival time, dose: 1.25 mg/kg/injection, schedule: Q01DX009 (ip), vehicle: saline
  T/C: 107 % of control
endpoint: mean survival time, dose: 2.5 mg/kg/injection, schedule: Q01DX009 (ip), vehicle: saline
  T/C: 107 % of control
endpoint: mean survival time, dose: 3.13 mg/kg/injection, schedule: Q01DX009 (ip), vehicle: saline
  T/C: 96 % of control
endpoint: mean survival time, dose: 5.0 mg/kg/injection, schedule: Q01DX009 (ip), vehicle: saline
  T/C: 103 % of control
endpoint: mean survival time, dose: 6.25 mg/kg/injection, schedule: Q01DX009 (ip), vehicle: saline
  T/C: 101 % of control
endpoint: mean survival time, dose: 12.5 mg/kg/injection, schedule: Q01DX009 (ip), vehicle: saline
  T/C: 98 % of control and 101 % of control

## O=C1CC2CCN(C(=O)c3ccccc3)C(Cc3c[nH]c4ccccc34)C2O1 (configuration not stated)
endpoint: mean survival time, dose: 100.0 mg/kg/injection, schedule: Q01DX001 (ip), vehicle: saline
  T/C: 105 % of control
endpoint: mean survival time, dose: 200.0 mg/kg/injection, schedule: Q01DX001 (ip), vehicle: saline
  T/C: 94 % of control
endpoint: mean survival time, dose: 400.0 mg/kg/injection, schedule: Q01DX001 (ip), vehicle: saline
  T/C: 93 % of control

## Nc1cc2c(cc1Br)-c1ccccc1C2Br (configuration not stated)
[3]
  T/C: 94 % of control
[4]
  T/C: 92 % of control

## CCCC1CC[N-]CC1.CCCC1CC[N-]CC1.CCCC1CC[N-]CC1.CCCC1CC[N-]CC1.[Cl][Rh][Cl]
[1]
  T/C: 90 % of control

## CCC(Cc1ccccc1)C(=O)O (configuration not stated)
[5]
  T/C: 108 % of control
[6]
  T/C: 97 % of control
endpoint: mean survival time, dose: 400.0 mg/kg/injection, schedule: Q04DX003 (ip), vehicle: saline
  T/C: 97 % of control

## CCCCCCCC/C=C\CCCCCCCCNP(=O)(OCCCCCCCCCCCC)OCCCCCCCCCCCC
endpoint: mean survival time, dose: 50.0 mg/kg/injection, schedule: Q04DX002 (ip), vehicle: saline with Tween-80
  T/C: 93 % of control
endpoint: mean survival time, dose: 100.0 mg/kg/injection, schedule: Q04DX002 (ip), vehicle: saline with Tween-80
  T/C: 96 % of control
[7]
  T/C: 89 % of control
endpoint: mean survival time, dose: 400.0 mg/kg/injection, schedule: Q04DX002 (ip), vehicle: saline with Tween-80
  T/C: 100 % of control

## COc1cc2cc3c(c(O)c2c(O)c1/C=C/C(C)C)C(=O)CC(C)(OC(C)=O)C3 (configuration not stated)
endpoint: median survival time, dose: 1.25 mg/kg/injection, schedule: Q01DX009 (ip), vehicle: Klucel (hydroxypropylcellulose) (HPC)
  T/C: 105 % of control
endpoint: median survival time, dose: 2.5 mg/kg/injection, schedule: Q01DX009 (ip), vehicle: Klucel (hydroxypropylcellulose) (HPC)
  T/C: 102 % of control
endpoint: median survival time, dose: 5.0 mg/kg/injection, schedule: Q01DX009 (ip), vehicle: Klucel (hydroxypropylcellulose) (HPC)
  T/C: 113 % of control
endpoint: median survival time, dose: 10.0 mg/kg/injection, schedule: Q01DX009 (ip), vehicle: Klucel (hydroxypropylcellulose) (HPC)
  T/C: 116 % of control and 121 % of control
endpoint: median survival time, dose: 20.0 mg/kg/injection, schedule: Q01DX009 (ip), vehicle: Klucel (hydroxypropylcellulose) (HPC)
  T/C: 98 % of control and 105 % of control

## CC1CCC(=O)O1 (configuration not stated)
endpoint: mean survival time, dose: 100.0 mg/kg/injection, schedule: Q04DX002 (ip), vehicle: saline
  T/C: 98 % of control
endpoint: mean survival time, dose: 200.0 mg/kg/injection, schedule: Q04DX002 (ip), vehicle: saline
  T/C: 98 % of control
endpoint: mean survival time, dose: 400.0 mg/kg/injection, schedule: Q04DX002 (ip), vehicle: saline
  T/C: 98 % of control

## O=c1nc(Nc2ccccc2)ccn1C1OC(CO)C(O)C1O (configuration not stated)
endpoint: mean survival time, dose: 100.0 mg/kg/injection, schedule: Q01DX005 (ip), vehicle: distilled water + Tween-80
  T/C: 98 % of control
endpoint: mean survival time, dose: 200.0 mg/kg/injection, schedule: Q01DX005 (ip), vehicle: distilled water + Tween-80
  T/C: 107 % of control
endpoint: mean survival time, dose: 400.0 mg/kg/injection, schedule: Q01DX005 (ip), vehicle: distilled water + Tween-80
  T/C: 110 % of control

## CC(C)=CCNc1ncnc2c1ncn2C1OC(COP(=O)(O)O)C(O)C1O (configuration not stated)
endpoint: mean survival time, dose: 25.0 mg/kg/injection, schedule: Q01DX005 (ip), vehicle: water
  T/C: 103 % of control
endpoint: mean survival time, dose: 50.0 mg/kg/injection, schedule: Q01DX005 (ip), vehicle: water
  T/C: 104 % of control
endpoint: mean survival time, dose: 100.0 mg/kg/injection, schedule: Q01DX005 (ip), vehicle: water
  T/C: 103 % of control
endpoint: mean survival time, dose: 200.0 mg/kg/injection, schedule: Q01DX005 (ip), vehicle: water
  T/C: 114 % of control

## CCCCCOC(=S)S.[Pt]
[8]
  T/C: 101 % of control
[9]
  T/C: 104 % of control
[1]
  T/C: 108 % of control
[2]
  T/C: 101 % of control
[3]
  T/C: 104 % of control

## COc1cc([C@@H]2c3cc4c(cc3[C@H](O)[C@H]3COC(=O)[C@H]23)OCO4)cc(OC)c1OC
endpoint: median survival time, dose: 0.62 mg/kg/injection, schedule: Q01DX009 (ip), vehicle: saline with Tween-80
  T/C: 122 % of control
endpoint: median survival time, dose: 0.63 mg/kg/injection, schedule: Q01DX009 (ip), vehicle: saline with Tween-80
  T/C: 112 % of control
endpoint: median survival time, dose: 1.0 mg/kg/injection, schedule: Q01DX005 (ip), vehicle: Klucel (hydroxypropylcellulose) (HPC)
  T/C: 124 % of control
endpoint: median survival time, dose: 1.25 mg/kg/injection, schedule: Q01DX009 (ip), vehicle: saline with Tween-80
  T/C: 116 % of control and 120 % of control
endpoint: median survival time, dose: 1.8 mg/kg/injection, schedule: Q01DX009 (ip), vehicle: saline with Tween-80
  T/C: 122 % of control
endpoint: median survival time, dose: 2.0 mg/kg/injection, schedule: Q01DX005 (ip), vehicle: Klucel (hydroxypropylcellulose) (HPC)
  T/C: 118 % of control
endpoint: median survival time, dose: 2.5 mg/kg/injection, schedule: Q01DX009 (ip), vehicle: saline with Tween-80
  T/C: 122 % of control
endpoint: median survival time, dose: 10.0 mg/kg/injection, schedule: Q01DX009 (ip), vehicle: saline with Tween-80
  T/C: 115 % of control and 111 % of control
endpoint: median survival time, dose: 13.89 mg/kg/injection, schedule: Q01DX009 (ip), vehicle: saline with Tween-80
  T/C: 155 % of control

## O=C(CC(NC(=O)OCc1ccccc1)c1nn[nH]n1)OCc1ccccc1 (configuration not stated)
[3]
  T/C: 86 % of control
endpoint: mean survival time, dose: 200.0 mg/kg/injection, schedule: Q04DX003 (ip), vehicle: saline with Tween-80
  T/C: 94 % of control
[4]
  T/C: 91 % of control

## O=c1c(O)c(-c2cc(O)c(O)c(O)c2)oc2cc(O)cc(O)c12
endpoint: mean survival time, dose: 25.0 mg/kg/injection, schedule: Q01DX009 (ip), vehicle: saline with Tween-80
  T/C: 98 % of control
endpoint: mean survival time, dose: 50.0 mg/kg/injection, schedule: Q01DX009 (ip), vehicle: saline with Tween-80
  T/C: 91 % of control
[10]
  T/C: 93 % of control
[11]
  T/C: 95 % of control

## Nc1ccc2ccccc2c1N=Nc1ccc(C(O)C(N)CO)cc1 (configuration not stated)
[8]
  T/C: 100 % of control
[9]
  T/C: 96 % of control
[1]
  T/C: 94 % of control

## NC(N)=NO
endpoint: mean survival time, dose: 25.0 mg/kg/injection, schedule: Q01DX009 (ip), vehicle: water
  T/C: 113 % of control
endpoint: mean survival time, dose: 50.0 mg/kg/injection, schedule: Q01DX009 (ip), vehicle: water
  T/C: 124 % of control
endpoint: mean survival time, dose: 200.0 mg/kg/injection, schedule: Q01DX009 (ip), vehicle: water
  T/C: 117 % of control
endpoint: mean survival time, dose: 300.0 mg/kg/injection, schedule: Q01DX009 (ip), vehicle: water
  T/C: 116 % of control
endpoint: mean survival time, dose: 500.0 mg/kg/injection, schedule: Q01DX009 (ip), vehicle: water
  T/C: 124 % of control

## CCCCCCCCCCCCCCCCCC[n+]1cccc(C(=O)N2CCOCC2)c1
endpoint: mean survival time, dose: 25.0 mg/kg/injection, schedule: Q01DX009 (ip), vehicle: Klucel (hydroxypropylcellulose) (HPC)
  T/C: 90 % of control
endpoint: mean survival time, dose: 50.0 mg/kg/injection, schedule: Q01DX009 (ip), vehicle: Klucel (hydroxypropylcellulose) (HPC)
  T/C: 95 % of control
endpoint: mean survival time, dose: 100.0 mg/kg/injection, schedule: Q01DX009 (ip), vehicle: Klucel (hydroxypropylcellulose) (HPC)
  T/C: 92 % of control

## CCC(CN(C)C)C(=O)c1ccccc1 (configuration not stated)
[5]
  T/C: 91 % of control
[7]
  T/C: 86 % of control
[6]
  T/C: 95 % of control

## CC1=[S+]c2ccccc2C2Nc3ccccc3C12 (configuration not stated)
endpoint: mean survival time, dose: 100.0 mg/kg/injection, schedule: Q04DX003 (ip), vehicle: acetone
  T/C: 103 % of control
endpoint: mean survival time, dose: 200.0 mg/kg/injection, schedule: Q04DX003 (ip), vehicle: acetone
  T/C: 105 % of control

## COc1ccc(CCNC(=O)CCN2C(=O)CCC2=O)cc1OC
[10]
  T/C: 98 % of control
endpoint: mean survival time, dose: 100.0 mg/kg/injection, schedule: Q04DX003 (ip), vehicle: saline sonified
  T/C: 101 % of control
[11]
  T/C: 96 % of control
endpoint: mean survival time, dose: 200.0 mg/kg/injection, schedule: Q04DX003 (ip), vehicle: saline sonified
  T/C: 101 % of control
endpoint: mean survival time, dose: 400.0 mg/kg/injection, schedule: Q01DX009 (ip), vehicle: saline with Tween-80
  T/C: 100 % of control
endpoint: mean survival time, dose: 400.0 mg/kg/injection, schedule: Q04DX003 (ip), vehicle: saline sonified
  T/C: 98 % of control
